Consider 3 compounds from ChEMBL document CHEMBL1201862, “PubChem BioAssay data set” (2004).

Holding throughout (assay type): functional
The target in test [1] is Hepatocyte growth factor receptor (Homo sapiens, UniProt P08581).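 Note: kinase panel profiling across the kinome, with MET as the panel member.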
The target in test [2] is Vascular endothelial growth factor receptor 1 (Homo sapiens, UniProt P17948).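 Note: measured within a kinome-wide profiling panel, FLT1 as the panel member.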
Test [3] concerns the target T1, Serine/threonine-protein kinase TAO1 (Homo sapiens, UniProt Q7L7X3).
T1 sequence (Q7L7X3 whole entry): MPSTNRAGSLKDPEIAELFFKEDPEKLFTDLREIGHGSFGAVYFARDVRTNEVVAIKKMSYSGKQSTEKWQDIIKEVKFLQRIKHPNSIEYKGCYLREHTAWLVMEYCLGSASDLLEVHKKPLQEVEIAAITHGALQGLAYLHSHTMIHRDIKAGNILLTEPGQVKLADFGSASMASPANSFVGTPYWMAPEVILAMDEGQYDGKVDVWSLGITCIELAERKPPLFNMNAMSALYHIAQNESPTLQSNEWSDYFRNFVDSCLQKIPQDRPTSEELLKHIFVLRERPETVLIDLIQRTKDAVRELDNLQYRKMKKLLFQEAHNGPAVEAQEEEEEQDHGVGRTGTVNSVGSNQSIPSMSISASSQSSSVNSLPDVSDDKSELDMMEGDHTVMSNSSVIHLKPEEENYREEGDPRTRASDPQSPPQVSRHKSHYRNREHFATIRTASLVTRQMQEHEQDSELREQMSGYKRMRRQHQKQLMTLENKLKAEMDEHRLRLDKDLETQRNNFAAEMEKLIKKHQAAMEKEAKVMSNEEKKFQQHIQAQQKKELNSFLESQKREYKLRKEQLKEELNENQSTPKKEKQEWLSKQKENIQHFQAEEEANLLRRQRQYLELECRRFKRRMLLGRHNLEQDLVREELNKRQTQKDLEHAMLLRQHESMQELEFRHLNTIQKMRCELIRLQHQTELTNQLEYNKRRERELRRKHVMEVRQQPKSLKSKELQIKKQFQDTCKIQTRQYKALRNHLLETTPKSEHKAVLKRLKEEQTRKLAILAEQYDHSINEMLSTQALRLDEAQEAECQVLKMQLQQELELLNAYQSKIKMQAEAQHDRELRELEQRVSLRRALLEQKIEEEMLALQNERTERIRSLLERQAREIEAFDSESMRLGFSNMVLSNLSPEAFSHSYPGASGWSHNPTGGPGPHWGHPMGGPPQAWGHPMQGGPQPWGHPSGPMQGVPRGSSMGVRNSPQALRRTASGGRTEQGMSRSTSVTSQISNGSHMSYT

The target of test [4] is Leucine-rich repeat serine/threonine-protein kinase 2 (Homo sapiens, UniProt Q5S007).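 Note: value from a broad kinome-wide panel profiling study in which LRRK2 was one of the kinases tested.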
Sequence of Leucine-rich repeat serine/threonine-protein kinase 2 (Q5S007 whole entry): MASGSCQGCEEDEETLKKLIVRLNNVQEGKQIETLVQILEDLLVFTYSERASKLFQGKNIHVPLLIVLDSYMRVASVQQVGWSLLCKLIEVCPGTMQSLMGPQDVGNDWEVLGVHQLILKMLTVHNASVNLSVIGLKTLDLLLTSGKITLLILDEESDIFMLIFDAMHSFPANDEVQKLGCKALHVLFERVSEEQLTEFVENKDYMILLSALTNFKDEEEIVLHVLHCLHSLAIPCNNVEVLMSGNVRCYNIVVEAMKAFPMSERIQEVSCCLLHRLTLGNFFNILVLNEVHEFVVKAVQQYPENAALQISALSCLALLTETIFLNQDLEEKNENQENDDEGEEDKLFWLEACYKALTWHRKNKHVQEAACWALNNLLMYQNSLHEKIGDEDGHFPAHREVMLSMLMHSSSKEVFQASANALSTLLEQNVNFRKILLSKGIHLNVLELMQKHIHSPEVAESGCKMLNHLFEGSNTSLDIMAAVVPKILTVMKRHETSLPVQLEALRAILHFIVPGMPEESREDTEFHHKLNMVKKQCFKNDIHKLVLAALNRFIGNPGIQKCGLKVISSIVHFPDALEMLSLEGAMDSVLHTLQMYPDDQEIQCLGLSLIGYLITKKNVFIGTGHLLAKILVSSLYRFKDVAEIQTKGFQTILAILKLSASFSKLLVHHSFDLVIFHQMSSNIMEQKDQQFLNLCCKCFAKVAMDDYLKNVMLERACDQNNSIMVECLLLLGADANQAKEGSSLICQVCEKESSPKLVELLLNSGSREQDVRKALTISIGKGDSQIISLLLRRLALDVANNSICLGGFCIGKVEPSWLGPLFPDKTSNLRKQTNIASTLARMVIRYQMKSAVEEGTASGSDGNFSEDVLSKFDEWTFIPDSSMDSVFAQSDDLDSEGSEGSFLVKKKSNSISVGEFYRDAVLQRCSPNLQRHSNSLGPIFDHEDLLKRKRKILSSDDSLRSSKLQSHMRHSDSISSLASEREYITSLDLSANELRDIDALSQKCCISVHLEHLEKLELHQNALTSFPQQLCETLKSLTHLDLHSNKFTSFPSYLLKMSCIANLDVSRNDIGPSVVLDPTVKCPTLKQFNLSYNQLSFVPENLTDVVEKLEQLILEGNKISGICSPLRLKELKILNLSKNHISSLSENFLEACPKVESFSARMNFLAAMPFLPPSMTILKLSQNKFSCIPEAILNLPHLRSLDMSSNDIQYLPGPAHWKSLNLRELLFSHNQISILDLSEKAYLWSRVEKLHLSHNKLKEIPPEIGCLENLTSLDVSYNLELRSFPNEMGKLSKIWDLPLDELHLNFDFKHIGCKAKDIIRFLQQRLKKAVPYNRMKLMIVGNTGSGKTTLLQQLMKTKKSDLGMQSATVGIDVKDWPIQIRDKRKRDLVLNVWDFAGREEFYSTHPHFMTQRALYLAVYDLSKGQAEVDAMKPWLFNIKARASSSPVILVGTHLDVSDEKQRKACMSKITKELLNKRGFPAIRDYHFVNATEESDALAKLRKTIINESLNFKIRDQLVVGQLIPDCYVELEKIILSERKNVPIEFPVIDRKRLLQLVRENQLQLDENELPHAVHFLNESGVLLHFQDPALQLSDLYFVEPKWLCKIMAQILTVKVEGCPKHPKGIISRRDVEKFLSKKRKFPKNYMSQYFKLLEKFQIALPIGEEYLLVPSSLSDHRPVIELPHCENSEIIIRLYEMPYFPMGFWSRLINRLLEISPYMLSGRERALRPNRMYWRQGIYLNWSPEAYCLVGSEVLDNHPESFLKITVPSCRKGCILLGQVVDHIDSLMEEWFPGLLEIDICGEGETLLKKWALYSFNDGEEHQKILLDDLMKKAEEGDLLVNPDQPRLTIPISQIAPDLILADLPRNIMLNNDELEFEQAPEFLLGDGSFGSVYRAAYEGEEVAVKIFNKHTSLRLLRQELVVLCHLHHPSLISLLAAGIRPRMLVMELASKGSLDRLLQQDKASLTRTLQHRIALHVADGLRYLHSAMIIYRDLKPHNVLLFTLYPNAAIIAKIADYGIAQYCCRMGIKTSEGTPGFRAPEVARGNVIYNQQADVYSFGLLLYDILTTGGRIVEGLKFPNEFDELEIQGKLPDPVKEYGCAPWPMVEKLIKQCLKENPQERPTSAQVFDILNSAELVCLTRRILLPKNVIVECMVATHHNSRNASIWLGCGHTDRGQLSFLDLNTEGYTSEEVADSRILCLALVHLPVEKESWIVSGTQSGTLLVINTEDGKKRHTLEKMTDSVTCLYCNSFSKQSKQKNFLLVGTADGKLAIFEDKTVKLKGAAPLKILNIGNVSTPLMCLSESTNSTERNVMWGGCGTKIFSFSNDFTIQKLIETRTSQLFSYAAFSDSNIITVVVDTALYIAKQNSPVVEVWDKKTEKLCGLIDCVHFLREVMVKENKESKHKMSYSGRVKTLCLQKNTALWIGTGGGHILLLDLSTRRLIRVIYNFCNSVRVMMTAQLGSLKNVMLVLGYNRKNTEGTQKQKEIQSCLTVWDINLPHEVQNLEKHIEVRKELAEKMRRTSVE
Test [5] has as its target T2, Serine/threonine-protein kinase Chk1 (Homo sapiens, UniProt O14757).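 Note: measured as one member of a kinome-wide kinase profiling panel.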
T2 sequence (O14757 whole entry): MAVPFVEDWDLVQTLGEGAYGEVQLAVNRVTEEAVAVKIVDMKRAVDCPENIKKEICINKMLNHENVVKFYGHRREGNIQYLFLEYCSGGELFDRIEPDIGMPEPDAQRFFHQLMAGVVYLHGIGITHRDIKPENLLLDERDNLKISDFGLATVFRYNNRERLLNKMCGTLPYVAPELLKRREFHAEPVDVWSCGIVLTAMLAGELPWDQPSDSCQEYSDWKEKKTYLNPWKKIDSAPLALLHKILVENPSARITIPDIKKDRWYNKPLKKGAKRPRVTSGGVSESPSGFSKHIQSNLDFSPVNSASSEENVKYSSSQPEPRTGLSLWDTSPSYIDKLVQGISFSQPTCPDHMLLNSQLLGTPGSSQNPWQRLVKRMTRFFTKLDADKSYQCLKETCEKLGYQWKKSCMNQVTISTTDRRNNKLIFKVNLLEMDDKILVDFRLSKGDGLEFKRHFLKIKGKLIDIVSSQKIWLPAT

Test [6] addresses Dual specificity protein kinase CLK4 (Homo sapiens, UniProt Q9HAZ1).
Test [7] addresses T3, Receptor-type tyrosine-protein kinase FLT3 (Homo sapiens, UniProt P36888).
T3 sequence (P36888 whole entry): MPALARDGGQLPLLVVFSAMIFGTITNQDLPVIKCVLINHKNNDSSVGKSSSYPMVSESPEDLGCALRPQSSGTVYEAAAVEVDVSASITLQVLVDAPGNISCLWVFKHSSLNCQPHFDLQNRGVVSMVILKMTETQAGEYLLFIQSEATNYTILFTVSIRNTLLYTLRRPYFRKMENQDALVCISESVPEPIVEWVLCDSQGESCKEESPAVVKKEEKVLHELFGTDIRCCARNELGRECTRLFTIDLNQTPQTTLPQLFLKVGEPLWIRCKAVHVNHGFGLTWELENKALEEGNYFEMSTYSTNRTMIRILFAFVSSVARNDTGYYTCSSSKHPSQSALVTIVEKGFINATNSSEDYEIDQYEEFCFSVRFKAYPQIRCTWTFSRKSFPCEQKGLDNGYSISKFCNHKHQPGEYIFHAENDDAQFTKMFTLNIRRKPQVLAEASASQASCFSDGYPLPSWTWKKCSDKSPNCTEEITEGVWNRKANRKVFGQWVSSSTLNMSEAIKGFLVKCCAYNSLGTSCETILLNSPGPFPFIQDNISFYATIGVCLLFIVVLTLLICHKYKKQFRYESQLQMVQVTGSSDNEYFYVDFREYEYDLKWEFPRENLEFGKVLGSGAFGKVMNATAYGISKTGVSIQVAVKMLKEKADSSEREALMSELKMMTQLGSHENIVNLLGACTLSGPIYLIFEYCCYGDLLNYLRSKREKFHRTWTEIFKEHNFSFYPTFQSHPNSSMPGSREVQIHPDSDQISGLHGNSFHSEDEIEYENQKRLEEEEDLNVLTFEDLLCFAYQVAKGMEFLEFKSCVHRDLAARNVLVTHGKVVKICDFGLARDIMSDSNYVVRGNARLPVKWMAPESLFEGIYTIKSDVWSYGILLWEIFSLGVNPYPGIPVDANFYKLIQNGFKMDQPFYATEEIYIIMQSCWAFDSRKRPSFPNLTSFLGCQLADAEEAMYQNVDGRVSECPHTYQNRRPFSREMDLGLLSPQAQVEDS

Test [8] has as its target Proto-oncogene tyrosine-protein kinase receptor Ret (Homo sapiens, UniProt P07949).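 Note: measured within a kinome-wide profiling panel, RET as the panel member.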
A further test has as its target Activated CDC42 kinase 1 (Homo sapiens, UniProt Q07912). As to the kind of experiment: Navigating the Kinome. Panel member name: ACK1.

Each structure is given as a SMILES string. Calls of active or inactive are those of the source.

Sequence of Vascular endothelial growth factor receptor 1 (P17948 whole entry): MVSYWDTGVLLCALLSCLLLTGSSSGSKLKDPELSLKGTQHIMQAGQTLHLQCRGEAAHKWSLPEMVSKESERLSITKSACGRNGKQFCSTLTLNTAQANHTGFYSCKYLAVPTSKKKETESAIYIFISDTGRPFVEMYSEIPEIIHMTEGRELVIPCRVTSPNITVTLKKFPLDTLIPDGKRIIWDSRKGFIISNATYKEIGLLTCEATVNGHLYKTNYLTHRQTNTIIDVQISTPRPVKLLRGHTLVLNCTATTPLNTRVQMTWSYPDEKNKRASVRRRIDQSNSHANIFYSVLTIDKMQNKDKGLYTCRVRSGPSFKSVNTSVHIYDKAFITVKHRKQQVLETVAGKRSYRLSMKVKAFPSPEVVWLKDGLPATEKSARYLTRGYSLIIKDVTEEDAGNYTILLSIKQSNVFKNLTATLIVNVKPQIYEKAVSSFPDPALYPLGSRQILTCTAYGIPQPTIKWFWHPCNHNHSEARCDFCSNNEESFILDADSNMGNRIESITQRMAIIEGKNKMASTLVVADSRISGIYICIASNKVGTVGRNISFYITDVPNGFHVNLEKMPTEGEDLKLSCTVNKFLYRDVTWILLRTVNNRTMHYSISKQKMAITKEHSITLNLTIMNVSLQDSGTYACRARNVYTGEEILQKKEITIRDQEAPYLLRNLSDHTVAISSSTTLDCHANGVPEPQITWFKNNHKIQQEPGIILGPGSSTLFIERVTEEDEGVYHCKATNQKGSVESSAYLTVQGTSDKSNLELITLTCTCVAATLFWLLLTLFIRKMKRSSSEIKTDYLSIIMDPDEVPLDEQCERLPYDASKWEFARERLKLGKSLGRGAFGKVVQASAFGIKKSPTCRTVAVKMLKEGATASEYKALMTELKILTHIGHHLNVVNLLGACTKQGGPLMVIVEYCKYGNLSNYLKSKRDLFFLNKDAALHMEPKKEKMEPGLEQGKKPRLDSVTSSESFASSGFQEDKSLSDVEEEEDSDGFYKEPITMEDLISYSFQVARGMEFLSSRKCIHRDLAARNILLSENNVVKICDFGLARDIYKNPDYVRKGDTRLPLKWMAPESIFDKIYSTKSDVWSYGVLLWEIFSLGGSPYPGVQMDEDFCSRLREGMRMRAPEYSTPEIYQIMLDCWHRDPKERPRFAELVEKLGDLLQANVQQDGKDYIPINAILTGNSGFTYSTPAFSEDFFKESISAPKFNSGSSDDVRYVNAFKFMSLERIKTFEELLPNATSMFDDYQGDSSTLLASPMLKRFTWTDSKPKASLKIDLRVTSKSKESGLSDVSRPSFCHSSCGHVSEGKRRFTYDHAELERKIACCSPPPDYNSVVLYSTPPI
Sequence of Dual specificity protein kinase CLK4 (Q9HAZ1 whole entry): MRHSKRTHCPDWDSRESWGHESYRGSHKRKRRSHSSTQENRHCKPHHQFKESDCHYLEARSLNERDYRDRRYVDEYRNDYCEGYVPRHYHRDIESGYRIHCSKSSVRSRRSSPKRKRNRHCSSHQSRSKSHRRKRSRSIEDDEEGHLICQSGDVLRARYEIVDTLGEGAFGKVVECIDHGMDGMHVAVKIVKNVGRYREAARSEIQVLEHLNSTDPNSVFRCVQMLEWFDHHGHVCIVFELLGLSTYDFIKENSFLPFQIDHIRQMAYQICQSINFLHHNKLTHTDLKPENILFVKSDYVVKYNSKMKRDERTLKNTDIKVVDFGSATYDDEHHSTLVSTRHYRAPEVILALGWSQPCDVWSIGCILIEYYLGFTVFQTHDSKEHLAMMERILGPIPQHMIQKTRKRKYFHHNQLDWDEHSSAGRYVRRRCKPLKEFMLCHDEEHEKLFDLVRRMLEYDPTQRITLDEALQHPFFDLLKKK

Regarding `Cc1ccc(C)c(NC(=O)c2cc(-c3ccco3)nc3ccccc23)c1`, the Ki is 631 nM (active) in [1]; 3160 nM (active) in test [2]; 3980 nM (active) in test [3]; 1580 nM (active) in [4]; 316 nM (active) in [5]; 398 nM (active) in test [6]. The Ki in test [7] was > 3160 nM (inactive); in [8] it was 3160 nM (active); on Activated CDC42 kinase 1 it was > 3980 nM (inactive).

On to `CN1CCC(c2c(O)cc(O)c3c(=O)cc(-c4ccccc4Cl)oc23)C(O)C1` (configuration not stated), for which the Ki is > 2510 nM (inactive) in test [1]; > 2000 nM (inactive) in test [2]; 794 nM (active) in test [3]; 1000 nM (active) in test [4]; > 6310 nM (inactive) in test [5]; 1260 nM (active) in test [6]. Also, the Ki was > 2510 nM (inactive) in [7], > 2000 nM (inactive) in test [8] and > 3980 nM (inactive) at Activated CDC42 kinase 1.

Regarding `COc1ccc(C2=NNc3cccc4c(OC)ccc2c34)cc1OC`, the Ki was 316 nM (active) in test [1]; 316 nM (active) in test [2]; 1000 nM (active) in [3]; 251 nM (active) in [4]; 31.6 nM (active) in [5]; 63.1 nM (active) in test [6]. Further, the figures for the Ki (in test [7]; in test [8]; on Activated CDC42 kinase 1) were 2510 nM (active), 501 nM (active) and 1260 nM (active), respectively.
